Reference: PMC9133036 (Nature Communications, 2022)
Changes are numbered by the printed parent chain. Several values for one entry are separate records, joined by “and”; a condition that tells them apart may be missing. Equal entries are not always repeated. Entries after “also recorded” stand apart in the source; their conditions may differ.

Experiments:
Assay type in all cases: cell-based
human OX2R wild type = molecular target: T1, human OX2R wild type (Homo sapiens, UniProt O43614); experiment: Inositol phosphate accumulation assay for Gq signaling, OX2R WT; set-up: FLAG; expressed in transfected cells; host or cells: HEK293; details: for Emax: normalized to OX2R WT Emax with the same ligand;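 for % IP accumulation: 100% equals the maximal response of wild-type OX2R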
T1 sequence (O43614 1-444): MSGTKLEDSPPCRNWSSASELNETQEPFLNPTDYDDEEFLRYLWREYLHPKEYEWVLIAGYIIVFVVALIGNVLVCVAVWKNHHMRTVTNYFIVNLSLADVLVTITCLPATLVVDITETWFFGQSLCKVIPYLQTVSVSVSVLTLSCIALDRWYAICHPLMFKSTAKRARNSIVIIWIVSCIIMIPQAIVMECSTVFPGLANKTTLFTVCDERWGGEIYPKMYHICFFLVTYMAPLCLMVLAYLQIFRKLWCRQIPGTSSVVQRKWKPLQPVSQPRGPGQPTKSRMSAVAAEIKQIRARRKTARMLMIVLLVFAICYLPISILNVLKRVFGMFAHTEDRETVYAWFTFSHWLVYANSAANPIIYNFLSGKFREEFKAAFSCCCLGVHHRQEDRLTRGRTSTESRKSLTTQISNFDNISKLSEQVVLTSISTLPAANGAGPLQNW
Description: (§1) The IP assay was adapted from a prior precedent. HEK293 cells were maintained in DMEM-high glucose (Millipore Sigma) supplemented with 5% fetal bovine serum (Corning) and penicillin-streptomycin (Millipore Sigma). Receptor constructs used were the full-length wild-type (or mutant) human OX1R and OX2R sequences cloned into pCDNA3. To enhance the Emax in the IP assay, a plasmid encoding full-length human Gαq subunit[66] was co-transfected into HEK293 cells with plasmids encoding orexin receptor constructs using Lipofectamine 3000 (Thermo Fisher). 24 h after transfection, the cells were plated on poly-D-lysine coated (Millipore Sigma) tissue culture-treated 96 well white plates with clear bottoms (Perkin Elmer) at 30,000 cells per well in Inositol-free DMEM (MP Biomedicals) supplemented with 5% fetal bovine serum, 4 mM L-glutamine (Millipore Sigma), penicillin-streptomycin, and about 5 uCi (5 ul) per ml myo-[2-3H] inositol (Perkin Elmer). The following day, the media was replaced with agonists that were diluted in HBSS (Millipore Sigma) containing 10 mM lithium chloride (Millipore Sigma) and incubated at 37 °C for 45 min. Then agonists were removed and cells were lysed on ice for 30 min with 10 mM formic acid (Millipore Sigma). 1.25 mg of poly-lysine coated YSI SPA beads (Perkin Elmer) was added to each well. The plates were mixed on an orbital shaker for 30 min. The plates were read on a MicroBeta scintillation counter (Perkin Elmer) the following day. IP accumulation assays on different constructs were performed in n ≥ 3 independent experiments (each done in duplicate), where n is shown in Supplementary Table 2.

OX2R N324A = molecular target: T2, OX2R N324A (Homo sapiens, UniProt O43614, N324A); experiment: IP accumulation assay, OX2R N324A;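 for % IP accumulation: 100% equals the maximal response of wild-type OX2R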
T2 construct: FLAG; expressed in transfected cells; host or cells: HEK293
T2 sequence (O43614 1-444 N324A): T1 sequence (O43614 1-444) with N324A
Description: as §1

OX2R Y354A = molecular target: T3, OX2R Y354A (Homo sapiens, UniProt O43614, Y354A); experiment: β-arrestin PathHunter assay, OX2R Y354A; details: for beta-arrestin recruitment fold change: Y354A, listed as OxB
T3 construct: expressed in transfected cells; host or cells: CHO-K1 cells stably expressing EA β-arrestin2 (DiscoveRX), transiently transfected with pCMV-ProLink OX2R
Description: β-Arrestin recruitment activity was measured by using the PathHunter system (DiscoveRX) according to the manufacturer’s instruction. Receptor constructs used were the full-length wild-type (or mutant) human OX2R sequences cloned into pCMV-ProLink (DiscoveRX). CHO-K1 cells stably expressing EA β-arrestin2 (DiscoveRX) were plated on 384 well white plates (Thermo Fisher) at 4000 cells/well in HamF12 (Wako Pure Chemical Industries) supplemented with 10% fetal bovine serum (Corning) and penicillin-streptomycin (Wako Pure Chemical Industries) and incubated overnight at 37 °C under 5% CO2. Cells were transfected with plasmids encoding wild type or each mutant ProLink-tagged human OX2R using FuGENE HD (Promega). […] Detection reagent was added and incubated for 1 h at room temperature. Luminescent signal was detected using an EnVision plate reader (PerkinElmer). β-arrestin assays on different constructs were performed in two or three independent experiments (each done in quadruplicate). Dose response curves (shown in Supplementary Fig. 8) were fitted to the three-parameter model ‘log(agonist) vs response’ in GraphPad Prism to determine pEC50 values.

human OX2R = molecular target: T4, human OX2R (Homo sapiens, UniProt O43614); experiment: Inhibition of forskolin-stimulated cAMP production (Gi signaling), OX2R + Gαi1; details: for stimulation of Gi1 as reduction in cAMP levels after forskolin treatment: HEK293 cells transfected with OX2R and Gαi1; for % Forskolin stimulation: OX2R + Gi
T4 construct: expressed in transfected cells; host or cells: HEK293
T4 sequence (O43614 1-444): T1 sequence (O43614 1-444)
Description: To measure Gi signaling[67], HEK293 cells were transfected with pGloSensor™−22F cAMP Plasmid (Promega) and CMV expression plasmid encoding human OX2R. To enhance the signal for the cAMP assay, we co-transfected a Gi expression plasmid (CMV-driven) in which the full-length human Gαi1 subunit sequence was cloned into pcDNA3. The following day, cells were harvested and washed with assay buffer, HBSS with 20 mM HEPES pH 7.4 (Millipore Sigma). Cells were suspended in assay buffer containing 0.5 mg/ml Luciferin (Gold Biotechnology) and plated on 96 well tissue culture-treated white plates with opaque bottoms (Thermo Fisher). The cells were incubated at 37 °C for 90 min. Forskolin (Millipore Sigma) diluted in assay buffer was added to wells for a final concentration of 5 mM. Luminescence was read at room temperature repeatedly in a CLARIOstar microplate reader (BMG Labtech) until the signal stopped increasing. Agonist diluted in assay buffer was added from a 7X stock and again the plates were read repeatedly until the signal was stable.

[1] = OXB conc (log, M) -10.29, listed as OXB

T3 sequence (O43614 whole entry Y354A): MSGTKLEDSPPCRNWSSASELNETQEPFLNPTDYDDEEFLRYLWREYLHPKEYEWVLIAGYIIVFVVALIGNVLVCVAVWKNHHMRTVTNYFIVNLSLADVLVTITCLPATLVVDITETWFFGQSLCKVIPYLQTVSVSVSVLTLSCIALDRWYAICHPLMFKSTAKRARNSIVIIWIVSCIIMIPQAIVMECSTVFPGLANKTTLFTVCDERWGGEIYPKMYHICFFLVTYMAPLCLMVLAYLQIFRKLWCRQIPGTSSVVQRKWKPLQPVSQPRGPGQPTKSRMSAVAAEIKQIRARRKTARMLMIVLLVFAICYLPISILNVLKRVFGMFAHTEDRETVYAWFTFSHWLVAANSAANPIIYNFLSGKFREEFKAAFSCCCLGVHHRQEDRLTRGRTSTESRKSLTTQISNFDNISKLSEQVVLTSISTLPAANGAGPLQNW
T3 sequence (P32121 whole entry partner): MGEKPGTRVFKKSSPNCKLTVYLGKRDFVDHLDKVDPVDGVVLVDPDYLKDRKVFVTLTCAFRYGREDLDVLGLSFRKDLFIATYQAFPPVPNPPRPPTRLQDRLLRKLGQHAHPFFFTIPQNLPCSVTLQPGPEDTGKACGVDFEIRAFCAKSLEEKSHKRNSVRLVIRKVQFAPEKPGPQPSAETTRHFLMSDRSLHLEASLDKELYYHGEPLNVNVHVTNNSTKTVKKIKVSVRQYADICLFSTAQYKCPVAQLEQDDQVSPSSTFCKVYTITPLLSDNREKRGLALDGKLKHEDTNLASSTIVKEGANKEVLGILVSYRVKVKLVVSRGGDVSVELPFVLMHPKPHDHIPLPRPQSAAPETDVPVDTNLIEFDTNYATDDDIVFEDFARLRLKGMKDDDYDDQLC

For COC(=O)N1CCC[C@H](NS(C)(=O)=O)[C@@H]1CO[C@H]1CC[C@@H](c2ccccc2)CC1 [TAK-925, methyl (2R,3S)−3-[(methylsulfonyl)amino]−2-{[(cis−4-phenylcyclohexyl)oxy]methyl}piperidine-1-carboxylate], the EC50 (human OX2R wild type; IP accumulation) was 7.5 nM, the “% IP accumulation” value (human OX2R wild type; TAK-925 conc (log, M) -10.25) was 0.00% and the Emax (human OX2R wild type) was 100. For the same compound, the EC50 (OX2R N324A; IP accumulation) was 18 nM, the “% IP accumulation” value (OX2R N324A; TAK-925 conc (log, M) -4.52) was 38.90% and 50.17% and 61.68% and the “% IP accumulation” value (OX2R N324A; TAK-925 conc (log, M) -5.00) was 44.83% and 48.29% and 62.09%. The “% IP accumulation” value (OX2R N324A; TAK-925 conc (log, M) -5.48) was 54.68% and 49.83% and 60.54%, the “% IP accumulation” value (OX2R N324A; TAK-925 conc (log, M) -5.95) was 62.62% and 51.37% and 66.38% and the “% IP accumulation” value (OX2R N324A; TAK-925 conc (log, M) -6.43) was 60.89% and 49.04% and 58.43%. For the same compound, the “% IP accumulation” value (OX2R N324A; TAK-925 conc (log, M) -6.91) was 55.51% and 43.02% and 53.52%, the “% IP accumulation” value (OX2R N324A; TAK-925 conc (log, M) -7.39) was 29.79% and 34.77% and 41.19% and the “% IP accumulation” value (OX2R N324A; TAK-925 conc (log, M) -7.86) was 20.98% and 26.21% and 25.22%. For the same compound, the “% IP accumulation” value (OX2R N324A; TAK-925 conc (log, M) -8.34) was 10.23% and 11.60% and 16.93%, the “% IP accumulation” value (OX2R N324A; TAK-925 conc (log, M) -8.82) was 0.00% and 5.30% and the “% IP accumulation” value (OX2R N324A; TAK-925 conc (log, M) -9.29) was 0.24% and 0.00% and 4.28%. The Emax (OX2R N324A; relative to OX2R WT/TAK-925) was 55, the EC50 (OX2R Y354A; β-arrestin recruitment) was 2400 nM and the “stimulation of Gi1 as reduction in cAMP levels after forskolin treatment” value (human OX2R) was “poor ability to stimulate Gi1; also recorded: minimal diminution of cAMP signal”. For the same compound, the “% Forskolin stimulation” value (human OX2R; log [Agonist] -5.00) was 72.69% and 86.21% and 88.94%, the “% Forskolin stimulation” value (human OX2R; log [Agonist] -5.52) was 88.35% and 93.40% and 97.54% and the “% Forskolin stimulation” value (human OX2R; log [Agonist] -6.00) was 94.60% and 96.68% and 103.97%. The “% Forskolin stimulation” value (human OX2R; log [Agonist] -6.52) was 100.56% and 102.28% and 109.64%, the “% Forskolin stimulation” value (human OX2R; log [Agonist] -7.00) was 100.76% and 107.19% and 105.95% and the “% Forskolin stimulation” value (human OX2R; log [Agonist] -7.52) was 105.87% and 108.11% and 120.96%. For the same compound, the “% Forskolin stimulation” value (human OX2R; log [Agonist] -8.00) was 107.95% and 108.44% and 107.03% and the “% Forskolin stimulation” value (human OX2R; log [Agonist] -8.52) was 103.47% and 109.30% and 118.87%.
In the case of orexin B, the “% IP accumulation” value (human OX2R wild type; OXB conc (log, M) -6.47712, listed as OXB) is reported as 93.64% and 92.82% and 91.17% and 95.11% and 103.46%, the “% IP accumulation” value (human OX2R wild type; [1]) is reported as 0.00% and 0.37% and 3.64% and the Emax (human OX2R wild type) is reported as 100. For the same compound, the “activation of the mutant receptor” value (OX2R N324A; Gq signaling, IP accumulation) was “fails to activate”, the “% IP accumulation” value (OX2R N324A; OXB conc (log, M) -6.95, listed as OXB) was 32.75% and 37.01% and 40.09% and the “% IP accumulation” value (OX2R N324A; OXB conc (log, M) -7.43, listed as OXB) was 25.51% and 22.88% and 29.36%. For the same compound, the “% IP accumulation” value (OX2R N324A; OXB conc (log, M) -7.91, listed as OXB) was 19.13% and 21.90% and 18.40%, the “% IP accumulation” value (OX2R N324A; OXB conc (log, M) -8.39, listed as OXB) was 9.56% and 13.73% and 13.07% and the “% IP accumulation” value (OX2R N324A; OXB conc (log, M) -8.86, listed as OXB) was 3.38% and 9.31% and 7.17%. The “% IP accumulation” value (OX2R N324A; OXB conc (log, M) -9.34, listed as OXB) was 7.35% and 10.16% and 5.28%, the “% IP accumulation” value (OX2R N324A; OXB conc (log, M) -9.82, listed as OXB) was 3.06% and 4.95% and 0.00% and the “% IP accumulation” value (OX2R N324A; [1]) was 0.00% and 2.10%. The “beta-arrestin recruitment fold change” value (OX2R Y354A; OxB concentration -6.00 (log, M)) was 9.833 fold and 7.839 fold and 7.764 fold and 5.538 fold, the “beta-arrestin recruitment fold change” value (OX2R Y354A; OxB concentration -6.52 (log, M)) was 8.222 fold and 8.331 fold and 7.995 fold and 7.023 fold and the “beta-arrestin recruitment fold change” value (OX2R Y354A; OxB concentration -7.00 (log, M)) was 7.061 fold and 6.164 fold and 4.831 fold and 5.998 fold. The “beta-arrestin recruitment fold change” value (OX2R Y354A; OxB concentration -7.52 (log, M)) was 3.021 fold and 4.546 fold and 4.264 fold and 4.947 fold, the “beta-arrestin recruitment fold change” value (OX2R Y354A; OxB concentration -8.00 (log, M)) was 1.570 fold and 2.249 fold and 1.723 fold and 2.390 fold and the “beta-arrestin recruitment fold change” value (OX2R Y354A; OxB concentration -8.52 (log, M)) was 0.925 fold and 1.624 fold and 1.133 fold and 1.227 fold. The “beta-arrestin recruitment fold change” value (OX2R Y354A; OxB concentration -9.00 (log, M)) was 0.997 fold and 0.922 fold and 1.331 fold and 1.082 fold, the “beta-arrestin recruitment fold change” value (OX2R Y354A; OxB concentration -10.00 (log, M)) was 1.135 fold and 1.096 fold and 1.298 fold and 1.060 fold and the “stimulation of Gi1 as reduction in cAMP levels after forskolin treatment” value (human OX2R) was “poor ability to stimulate Gi1; also recorded: minimal diminution of cAMP signal”. For the same compound, the “% Forskolin stimulation” value (human OX2R; log [Agonist] -5.00, listed as OXB) was 62.35% and 75.49% and 85.20%, the “% Forskolin stimulation” value (human OX2R; log [Agonist] -5.52, listed as OXB) was 65.51% and 74.64% and 79.34% and the “% Forskolin stimulation” value (human OX2R; log [Agonist] -6.00, listed as OXB) was 67.69% and 72.61% and 81.55%. The “% Forskolin stimulation” value (human OX2R; log [Agonist] -6.52, listed as OXB) was 83.40% and 83.94% and 91.79%, the “% Forskolin stimulation” value (human OX2R; log [Agonist] -7.00, listed as OXB) was 104.15% and 101.20% and 102.30% and the “% Forskolin stimulation” value (human OX2R; log [Agonist] -7.52, listed as OXB) was 105.47% and 101.46% and 103.50%. For the same compound, the “% Forskolin stimulation” value (human OX2R; log [Agonist] -8.00, listed as OXB) was 105.90% and 100.54% and 102.29% and the “% Forskolin stimulation” value (human OX2R; log [Agonist] -8.52, listed as OXB) was 101.42% and 105.57% and 98.48%.
